Assay results: ChEMBL document CHEMBL4359860, “Tacrine-O-protected phenolics heterodimers as multitarget-directed ligands against Alzheimer's disease: Selective subnanomolar BuChE inhibitors” (Eur J Med Chem, 2019)
Active and inactive are the calls of the source. The calls are words filed in the database; no cut-off is given here.

How the values were obtained:
[1] = target: T1, Acetylcholinesterase (Electrophorus electricus, UniProt O42275)
Description: Inhibition of electric eel AChE assessed as dissociation constant for enzyme-inhibitor complex using acetylthiocholine iodide as substrate measured for 125 secs by Ellman's method

[2] = target: T2, Cholinesterase (Equus caballus, UniProt P81908)
T2 sequence (P81908 whole entry): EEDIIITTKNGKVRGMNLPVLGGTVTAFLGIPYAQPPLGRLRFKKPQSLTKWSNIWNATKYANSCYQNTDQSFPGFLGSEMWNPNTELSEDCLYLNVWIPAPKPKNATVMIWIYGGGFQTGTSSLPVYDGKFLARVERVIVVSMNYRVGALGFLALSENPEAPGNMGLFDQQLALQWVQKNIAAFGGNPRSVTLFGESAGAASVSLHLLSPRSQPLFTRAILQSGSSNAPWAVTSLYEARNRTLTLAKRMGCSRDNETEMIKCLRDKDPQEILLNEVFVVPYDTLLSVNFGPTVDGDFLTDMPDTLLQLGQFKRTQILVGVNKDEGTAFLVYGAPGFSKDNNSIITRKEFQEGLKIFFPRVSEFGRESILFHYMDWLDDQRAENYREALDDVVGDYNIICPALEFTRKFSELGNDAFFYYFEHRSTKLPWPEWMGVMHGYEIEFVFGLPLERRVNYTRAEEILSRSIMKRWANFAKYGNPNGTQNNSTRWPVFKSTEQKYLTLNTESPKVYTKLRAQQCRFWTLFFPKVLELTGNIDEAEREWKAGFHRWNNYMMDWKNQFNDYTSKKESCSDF
Description: Inhibition of equine serum BuChE assessed as dissociation constant for enzyme-substrate-inhibitor complex using butyrylthiocholine iodide as substrate measured for 125 secs by Ellman's method

[3] = target: T1, Acetylcholinesterase; remark: listed apart in the source
Description: Inhibition of electric eel AChE assessed as dissociation constant for enzyme-substrate-inhibitor complex using acetylthiocholine iodide as substrate measured for 125 secs by Ellman's method

[4] = target: Acetylcholinesterase (Homo sapiens, UniProt P22303); experiment: Inhibition of human recombinant AChE expressed in HEK293 cells using […] as substrate preincubated with enzyme for 20 mins followed by substrate addition and measured after 5 mins by Ellman's method
Acetylcholinesterase (Homo sapiens, UniProt P22303), sequence (P22303 whole entry): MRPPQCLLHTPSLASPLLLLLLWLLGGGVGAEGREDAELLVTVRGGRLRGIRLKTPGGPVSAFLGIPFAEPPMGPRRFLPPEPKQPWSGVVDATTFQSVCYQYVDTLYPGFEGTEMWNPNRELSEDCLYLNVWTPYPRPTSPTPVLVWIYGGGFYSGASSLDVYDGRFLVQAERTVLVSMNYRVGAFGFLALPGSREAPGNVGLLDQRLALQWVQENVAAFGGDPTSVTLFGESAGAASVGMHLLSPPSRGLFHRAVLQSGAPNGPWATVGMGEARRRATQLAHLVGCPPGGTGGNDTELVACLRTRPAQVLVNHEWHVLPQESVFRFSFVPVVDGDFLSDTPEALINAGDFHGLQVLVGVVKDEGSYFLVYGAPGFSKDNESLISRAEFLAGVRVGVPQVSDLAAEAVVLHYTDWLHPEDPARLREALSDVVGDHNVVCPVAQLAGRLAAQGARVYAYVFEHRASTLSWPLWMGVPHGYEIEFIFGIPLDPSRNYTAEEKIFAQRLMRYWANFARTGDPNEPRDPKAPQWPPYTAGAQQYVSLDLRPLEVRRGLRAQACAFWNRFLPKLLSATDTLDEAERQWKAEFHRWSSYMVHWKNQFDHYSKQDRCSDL

[5] = target: T3, Cholinesterase (Homo sapiens, UniProt P06276); experiment: Inhibition of human serum BuChe by Ellman's method
T3 sequence (P06276 whole entry): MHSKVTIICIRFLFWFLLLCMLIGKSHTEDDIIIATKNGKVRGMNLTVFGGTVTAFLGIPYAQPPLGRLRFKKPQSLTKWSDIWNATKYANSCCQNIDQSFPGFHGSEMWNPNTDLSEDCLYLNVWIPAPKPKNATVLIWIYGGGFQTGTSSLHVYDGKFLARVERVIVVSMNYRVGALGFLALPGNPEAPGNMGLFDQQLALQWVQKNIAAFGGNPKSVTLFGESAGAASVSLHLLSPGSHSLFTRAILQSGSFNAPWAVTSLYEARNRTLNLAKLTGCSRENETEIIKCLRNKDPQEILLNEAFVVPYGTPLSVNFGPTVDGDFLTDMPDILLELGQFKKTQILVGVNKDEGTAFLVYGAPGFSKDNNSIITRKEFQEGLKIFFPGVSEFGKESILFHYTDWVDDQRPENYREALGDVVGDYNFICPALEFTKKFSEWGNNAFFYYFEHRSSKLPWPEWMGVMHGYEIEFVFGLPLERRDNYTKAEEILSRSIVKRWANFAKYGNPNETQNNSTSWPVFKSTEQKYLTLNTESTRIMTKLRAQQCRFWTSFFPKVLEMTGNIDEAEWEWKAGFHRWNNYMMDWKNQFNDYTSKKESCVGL

[6] = target: T2, Cholinesterase; remark: listed apart in the source
Description: Inhibition of equine serum BuChE assessed as dissociation constant for enzyme-inhibitor complex using butyrylthiocholine iodide as substrate measured for 125 secs by Ellman's method

[7] = target: Cholinesterase (Equus caballus) (UniProt P81908)
Cholinesterase (Equus caballus), sequence (P81908 whole entry): as the sequence (P81908 whole entry) above

[8] = Cytotoxicity against human hTERT-BJ cells assessed as growth inhibition after 48 hrs by SRB assay; type: cell-based
[9] = test system: HBL-100; experiment: Antiproliferative activity against human HBL100 cells assessed as growth inhibition after 48 hrs by SRB assay; type: functional; details: HBL-100, 48 h
[10] = test system: WiDr; experiment: Antiproliferative activity against human WiDr cells assessed as growth inhibition after 48 hrs by SRB assay; type: functional
[11] = test system: A549; experiment: Antiproliferative activity against human A549 cells assessed as growth inhibition after 48 hrs by SRB assay; type: functional; details: A549, 48 h
[12] = test system: T47D; experiment: Antiproliferative activity against human T47D cells assessed as growth inhibition after 48 hrs by SRB assay; type: functional
[13] = test system: SW1573; experiment: Antiproliferative activity against human SW1573 cells assessed as growth inhibition after 48 hrs by SRB assay; type: functional; details: SW1573, 48 h
[14] = target: Cholinesterase (Equus caballus) (UniProt P81908); remark: listed apart in the source
[15] = test system: HeLa; experiment: Antiproliferative activity against human HeLa cells assessed as growth inhibition after 48 hrs by SRB assay; type: functional
[16] = target: Amyloid-beta precursor protein (Homo sapiens) (UniProt P05067); details: at 50 µM
Amyloid-beta precursor protein (Homo sapiens), sequence (P05067 whole entry): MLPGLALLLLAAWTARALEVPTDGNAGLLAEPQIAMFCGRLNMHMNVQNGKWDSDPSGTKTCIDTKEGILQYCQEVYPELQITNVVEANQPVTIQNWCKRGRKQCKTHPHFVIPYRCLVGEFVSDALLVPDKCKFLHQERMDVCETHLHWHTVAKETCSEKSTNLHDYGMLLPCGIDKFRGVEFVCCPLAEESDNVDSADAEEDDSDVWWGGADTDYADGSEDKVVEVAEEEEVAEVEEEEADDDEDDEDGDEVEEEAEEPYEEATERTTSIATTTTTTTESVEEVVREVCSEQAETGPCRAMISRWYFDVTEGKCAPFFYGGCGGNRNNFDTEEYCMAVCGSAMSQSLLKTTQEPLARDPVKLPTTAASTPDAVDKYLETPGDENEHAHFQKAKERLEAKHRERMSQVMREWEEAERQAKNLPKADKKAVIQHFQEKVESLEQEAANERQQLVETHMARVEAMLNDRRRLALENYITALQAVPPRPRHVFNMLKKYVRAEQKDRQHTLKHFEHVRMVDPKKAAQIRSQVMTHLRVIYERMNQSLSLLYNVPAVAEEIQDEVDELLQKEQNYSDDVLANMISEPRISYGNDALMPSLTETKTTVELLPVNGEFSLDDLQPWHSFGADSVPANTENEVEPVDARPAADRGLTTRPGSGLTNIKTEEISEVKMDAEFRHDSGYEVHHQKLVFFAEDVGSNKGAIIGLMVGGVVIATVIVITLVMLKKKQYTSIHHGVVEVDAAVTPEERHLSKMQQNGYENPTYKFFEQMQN
Description: Inhibition of amyloid beta (1 to 42) (unknown origin) self aggregation at 50 uM incubated for 48 hrs by thioflavin-T fluorescence method relative to control

[17] = target: T3, Cholinesterase; experiment: Potency index, ratio of tacrine IC50 to compound IC50 for human serum BuChe by Ellman's method
[18] = Cytotoxicity in rat Primary cerebellar granule neuron assessed as cell viability at 1 uM after 24 hrs by MTT assay; type: cell-based, Cerebellar granule neurone; details: primary cerebellar granule neurons, read-out: Activity
[19] = test system: Cerebellar granule neurone; experiment: Neuroprotective activity against 6-OHDA-induced cytotoxicity in rat primary cerebellar granule neuron at 1 to 25 uM by MTT assay; type: functional, cell-based
[20] = test system: HepG2; experiment: Cytotoxicity against human HepG2 cells at 1 to 25 uM after 24 hrs by MTT assay; type: cell-based; details: hepg2, 24 h
[21] = Cytotoxicity against human HepG2 cells assessed as cell survival at 1 to 25 uM after 24 hrs by MTT assay relative to control; type: cell-based; details: read-out: Activity
[22] = Stability of compound in human plasma at 10 uM measured up to 360 mins by LC-MS analysis; type: ADME, cell-free; details: 6 h
[23] = test system: Primary neuron; experiment: Neuroprotective activity against serum/K+ deprivation induced cytotoxicity in rat primary neuronal cells up to 10 uM by MTT assay; type: functional, cell-based
[24] = test system: Cerebellar granule neurone; experiment: Cytotoxicity in rat Primary cerebellar granule neuron assessed as cell viability up to 5 uM after 24 hrs by MTT assay; type: cell-based
[25] = Selectivity index, ratio of GI50 for human hTERT-BJ cells to GI50 for human WiDr cells after 48 hrs by SRB assay; type: toxicity; details: hTERT-BJ cells and WiDr cells, read-out: RatioGI50
[26] = Selectivity index, ratio of GI50 for human hTERT-BJ cells to GI50 for human T47D cells after 48 hrs by SRB assay; type: toxicity; details: hTERT-BJ cells and T47D cells, read-out: RatioGI50
[27] = test system: T47D; experiment: Potency index, ratio of 5-FU GI50 to compound GI50 for human T47D cells after 48 hrs by SRB assay; type: functional
[28] = test system: WiDr; experiment: Potency index, ratio of 5-FU GI50 to compound GI50 for human WiDr cells after 48 hrs by SRB assay; type: functional

T1 sequence (O42275 whole entry): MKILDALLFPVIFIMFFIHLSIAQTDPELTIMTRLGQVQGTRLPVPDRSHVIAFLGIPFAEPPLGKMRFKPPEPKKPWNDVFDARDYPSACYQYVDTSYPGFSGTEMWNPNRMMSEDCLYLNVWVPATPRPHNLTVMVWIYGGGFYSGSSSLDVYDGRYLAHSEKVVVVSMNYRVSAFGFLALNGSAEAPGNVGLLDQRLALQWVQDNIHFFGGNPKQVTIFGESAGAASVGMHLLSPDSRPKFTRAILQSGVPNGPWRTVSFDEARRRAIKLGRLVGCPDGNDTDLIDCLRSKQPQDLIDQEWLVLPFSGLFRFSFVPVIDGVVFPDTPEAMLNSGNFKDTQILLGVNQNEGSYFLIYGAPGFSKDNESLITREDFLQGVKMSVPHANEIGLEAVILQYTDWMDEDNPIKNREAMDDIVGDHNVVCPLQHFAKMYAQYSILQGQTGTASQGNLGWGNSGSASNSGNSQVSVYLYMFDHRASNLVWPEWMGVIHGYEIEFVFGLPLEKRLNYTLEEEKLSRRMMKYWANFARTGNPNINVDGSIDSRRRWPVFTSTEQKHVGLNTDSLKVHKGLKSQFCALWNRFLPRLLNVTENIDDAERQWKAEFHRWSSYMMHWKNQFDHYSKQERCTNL

SMILES | Ki [1] | Ki [2] | Ki [3] | IC50 [4] | IC50 [5] | Ki [6] | also measured
Oc1cc(/C=N/c2c3c(nc4ccccc24)CCCC3)cc(O)c1O | 400 nM | 5.8 nM | 170 nM | 1040 nM | 120 nM | 51 nM | –
Oc1ccc(CCNc2c3c(nc4ccccc24)CCCC3)cc1 | 110 nM | – | 32 nM | – | – | 184 nM | inhibition [7]: Active
COc1ccc(/C=N/c2c3c(nc4ccccc24)CCCC3)cc1OC | 2500 nM | 35 nM | 1900 nM | – | – | 271 nM | GI50 at 48 h [8]: 16000 nM; GI50 [9]: 43000 nM; GI50 [10]: 31000 nM; GI50 [11]: 34000 nM; GI50 [12]: 35000 nM; GI50 [13]: 39000 nM; inhibition [14]: Active; GI50 [15]: 43000 nM
c1ccc(COc2ccc(CCOCCCCCNc3c4c(nc5ccccc35)CCCC4)cc2)cc1 | 110 nM | 1.5 nM | 110 nM | 454 nM | 6.95 nM | 1.9 nM | inhibition [16]: 70%
Oc1ccc(/C=N/c2c3c(nc4ccccc24)CCCC3)cc1O | 2100 nM | 1.9 nM | 820 nM | 609 nM | 41.5 nM | 11 nM | –
COc1ccc(CNc2c3c(nc4ccccc24)CCCC3)cc1OC | 640 nM | 6.4 nM | 210 nM | – | – | 31 nM | –
c1ccc(COc2ccc(CCNc3c4c(nc5ccccc35)CCCC4)cc2OCc2ccccc2)cc1 | 1600 nM | 1.1 nM | 610 nM | – | – | 22 nM | –
COc1ccc(CCOCCCCCNc2c3c(nc4ccccc24)CCCC3)cc1 | 75 nM | 2.9 nM | 75 nM | 216 nM | 2.92 nM | 29 nM | inhibition [16]: 63.5%
c1ccc(COc2ccc(CCOCCCCCNc3c4c(nc5ccccc35)CCCC4)cc2OCc2ccccc2)cc1 | 340 nM | 2.7 nM | 130 nM | 506 nM | 0.497 nM | 4.6 nM | Ratio IC50 [17]: 85; inhibition [16]: 75.3%; viability at 24 h, 1 µM [18]: 50%; Activity [19]: inactive; Activity [20]: Toxic
Oc1ccc(CNc2c3c(nc4ccccc24)CCCC3)cc1 | 370 nM | 3.2 nM | 81 nM | – | – | 12 nM | inhibition [14]: Active
Oc1ccc(CCOCCCCCNc2c3c(nc4ccccc24)CCCC3)cc1 | 140 nM | 4.5 nM | 100 nM | 142 nM | 6.06 nM | – | inhibition [16]: 54.4%; inhibition [7]: Active
Oc1ccc(CCOCCCCCNc2c3c(nc4ccccc24)CCCC3)cc1O | 210 nM | 9 nM | 77 nM | 542 nM | 35.6 nM | 43 nM | inhibition [14]: Active
C(=N\c1c2c(nc3ccccc13)CCCC2)/c1ccc(OCc2ccccc2)c(OCc2ccccc2)c1 | 24000 nM | 173 nM | 20000 nM | – | – | 637 nM | –
c1ccc2c(N3CCCC3)c3c(nc2c1)CCCC3 | 3200 nM | 304 nM | – | – | – | 1200 nM | GI50 at 48 h [8]: 50000 nM; GI50 [9]: 27000 nM; GI50 [10]: 21000 nM; GI50 [11]: 24000 nM; GI50 [12]: 18000 nM; GI50 [13]: 26000 nM; GI50 [15]: 18000 nM
Oc1ccc(CNCCCCCCNc2c3c(nc4ccccc24)CCCC3)cc1O | 120 nM | 1.7 nM | 58 nM | 29 nM | 22.9 nM | 7.9 nM | –
Oc1ccc(CCNc2c3c(nc4ccccc24)CCCC3)cc1O | 870 nM | 28 nM | 590 nM | – | – | 128 nM | –
Oc1ccc(/C=N/c2c3c(nc4ccccc24)CCCC3)cc1 | 3000 nM | 17 nM | 1800 nM | 1470 nM | 194 nM | – | inhibition [7]: Active
COc1ccc(CCOCCCCCNc2c3c(nc4ccccc24)CCCC3)cc1OC | 170 nM | 1.9 nM | 55 nM | 168 nM | 0.515 nM | 7 nM | Ratio IC50 [17]: 85; inhibition [16]: 63.8%; viability at 24 h, 25 µM [21]: 60 to 70%; Activity [19]: inactive; Stability [22]: Stable; Activity [23]: Active; Activity [24]: Non-Toxic
BrCCCCCOCCc1ccc(OCc2ccccc2)cc1 | – | – | – | – | – | – | GI50 [9]: > 100000 nM; GI50 [10]: > 100000 nM; GI50 [11]: 93000 nM; GI50 [12]: 92000 nM; GI50 [13]: > 100000 nM; GI50 [15]: > 100000 nM
Oc1ccc(CNc2c3c(nc4ccccc24)CCCC3)cc1O | 190 nM | 3.2 nM | 190 nM | 100 nM | 74.8 nM | 25 nM | –
O=c1[nH]cc(F)c(=O)[nH]1 [FLUOROURACIL] | – | – | – | – | – | – | GI50 [9]: 5500 nM; GI50 [10]: 49000 nM; GI50 [12]: 47000 nM; GI50 [13]: 4300 nM; GI50 [15]: 15000 nM
COc1ccc(CNCCCCCNc2c3c(nc4ccccc24)CCCC3)cc1OC | 160 nM | 9.9 nM | 120 nM | – | – | 30 nM | –
c1ccc(COc2ccc(CCNc3c4c(nc5ccccc35)CCCC4)cc2)cc1 | 1600 nM | 1.1 nM | 610 nM | – | – | 22 nM | –
c1ccc2c(N3CCCCC3)c3c(nc2c1)CCCC3 | 1800 nM | 275 nM | 2500 nM | – | – | 1900 nM | GI50 at 48 h [8]: 25000 nM; selectivity ratio at 48 h [25]: 5; GI50 [9]: 19000 nM; GI50 [10]: 4500 nM; GI50 [11]: 11000 nM; selectivity ratio at 48 h [26]: 5; RatioGI50 [27]: 10; GI50 [12]: 5200 nM; GI50 [13]: 13000 nM; RatioGI50 [28]: 10; GI50 [15]: 13000 nM
C(=N\c1c2c(nc3ccccc13)CCCC2)/c1cc(OCc2ccccc2)c(OCc2ccccc2)c(OCc2ccccc2)c1 | 2300 nM | 192 nM | 3000 nM | – | – | 704 nM | –
C(=N\c1c2c(nc3ccccc13)CCCC2)/c1ccc(OCc2ccccc2)cc1 | 39000 nM | 643 nM | 23000 nM | – | – | 2920 nM | –
